Consider four compounds from patent US6831104B2, “Insect pest eradication system” (priority 2000, dated 2004).

Where two headings read alike, the source gives them in different places.

Series [1] relates to active fire ant colonies. As to the kind of experiment: Test 7: methanol alone; trans-dichloroethylene/methanol solution then Diazinon solution. Conditions: for fire ant activity upon surface of mound: upon wetting first mound (about 5 inches) with the alcohol alone. Type of series: in vivo, Red Fire Ant. As to the method:
In the seventh test, active fire ant colonies were treated with methanol and then with a mixture of methanol plus trans-dichloroethylene. Additionally, an aqueous Diazinon® solution was applied to a targeted mound following application of the latter mixture. First, an active fire ant mound, approximately 5 inches in diameter, was treated with enough methanol to wet the surface of the mound. […] Then a solution of three parts methanol to one part trans-dichloroethylene was applied to the surface of a second fire ant mound approximately 8 inches in diameter. […] After five minutes, the second mound was pierced in several places with a steel shaft. A Diazinon® solution was then applied to the mound. At no time were ants observed exiting the second mound.

The test system of series [2] is live fire ant colony. The note with it: in vivo.
Series [3] relates to live fire ant colony. As to the kind of experiment: Test 8: ethanol and water; trans-dichloroethylene/ethanol solution then Diazinon solution. Conditions: in vivo. Details: species or system Red Fire Ant. The source says: In eighth and ninth tests, the method of the seventh test was duplicated using two other alcohols, namely ethanol and isopropanol.
In series [4] the test system is active fire ant mound. In words: General experimental method: knockout agent mixture then insecticide on fire ant mound, excavation of plugs. Type of series: in vivo, Red Fire Ant. Conditions: applied superficially to a fire ant mound. The source says:
The experimental method used herein entailed first preparing a mixture of 1 part trans-dichloroethylene (knockout agent) and 2 parts vegetable oil (liquid Crisco® was the vegetable oil most often used in the test) and then applying the mixture to the surface of an active fire ant mound 12 inches or less in surface diameter. The oil with the knockout agent is preferably biodegradable and miscible with the knockout agent. Units of measure are in pints, with the mixture comprising approximately ½ pint trans-dichloroethylene for every pint of vegetable oil. Approximately one-quarter (¼) pint of the trans-dichloroethylene/vegetable oil mixture was applied to a fire-ant hill about 12-inches in surface diameter.
The next step entailed applying a suitable insecticide to the fire ant mound. The insecticide was a commercially available Diazinon® applied one of two forms onto a fire ant mound that had been treated with the trans-dichloroethylene mixture. […]
Following all of these tests, the targeted fire ant colonies were excavated in the form of plugs. These “plugs” of excavated earth that had comprised the fire ant colony measured about 12″×12″×12. […] Hundreds, if not thousands, of dead individual worker ants, dead ant larvae and eggs were detected. […]

Series [5] deals with fire ant colony. In words: Test 1: trans-dichloroethylene/vegetable oil mixture poured on fire ant colony in 2-gallon flowerpot. Type of series: in vivo, Red Fire Ant. On the procedure:
These tests were conducted on active fire ant mounds located primarily upon an acre tract of residential property in Lake Charles, La.
In the first test, a mixture of 1 part trans-dichloroethylene to 2 parts vegetable oil (liquid Crisco® brand vegetable oil) was used. A fire ant colony that had established itself within a 2-gallon flowerpot was treated with approximately 1 cup of a trans-dichloroethylene/vegetable oil mixture. The technique involved pouring the liquid mixture onto the surface of the targeted fire ant mound. Observations of fire ant activity were made upon application and following application of the mixture. Afterward, the contents of the infested flower pot were emptied upon a flat, ply-wood surface and dissected. The following results of individual fire ant activity within the treated soil were observed: […]

Take `CO` [methanol]: the “knock out of fire ants within a targeted mound (conclusion)” value (“knock out” below) in series [1] (in vivo) was “does not serve to knockout fire ants”. In addition, the figures for the “fire ant activity upon surface of mound” value in series [1] and in series [1] (listed as pure ethanol) were “observed exiting the mound” and “Significant fire ant activity”, respectively.

As for `CC(C)O` [anhydrous isopropanol, isopropanol], the “knock out” value in series [2] is recorded as “neither serves to knock out fire ants”.

Regarding `CCO` [anhydrous ethanol, ethanol], the “knock out” value in series [3] was “neither serves to knock out fire ants”.

For `Cl/C=C/Cl` [trans-dichloroethylene], the “incapacitation of individual insects in targeted fire ant mound” value in series [4] is given as “completely incapacitated”. In addition, in series [5] (small dosages, short periods of exposure), the “toxicity to fire ants (conclusion)” value is on record as “not itself toxic to fire ants”. In addition, the “evaporation from treated soil” value in series [5] (treated soil exposed to the open air) is “rapidly evaporates”.
